Experimental data taken from patent US20100035755A1, “METHOD OF CONTROLLING WEEDS IN A TURF GRASS BY USING SULFONYLUREA COMPOUNDS” (Moghu Research Center Ltd., priority 2008, published 2010).

Columns and labels:
[1] = test system: Zoysia japonica; test: Actual field condition test of Example 1 (golf course); format: in vivo; conditions: twenty days after application
Protocol: (§1) The test chemical of the Example 1 was applied to a turf grass field, in which Digitaria sanguinalis as a representative summer-time poaceae weed and Kyllinga brevifolia as a representative hard-to-control perennial cyperaceae weed are thriving predominantly, to evaluate weed control effect of the compound. The experiment was carried out from May to July, 2008 in the Dae-duk Research Park golf course (Doryong-dong, Yusong-gu, Daejon, South Korea). At the time of the chemical application, Digitaria sanguinalis was at about 4-leaf stage and Kyllinga brevifolia was at growth period.

[2] = test system: Kentucky bluegrass; test: as above; format: in vivo, Poa pratensis; conditions: twenty days after application
Protocol: as §1

[3] = test system: every kind of turf grasses tested; test: Turf grass selectivity, text summary over all turf grasses; format: in vivo
From the text: Turf mats of Zoysia grass, bentgrass, Kentucky bluegrass, or perennial rye grass known as cool season turfgrass or western grass were purchased and cut into a piece having 10 cm×20 cm size. Then, each piece was transplanted in a rectangular plastic pot (surface area of 300 cm^2) in which sandy loam and mixed top soil (Boo-Nong Top Soil No. 3, for horticultural use) are filled in 1:1 ratio. After the transplantation, the grasses were cut once a week to maintain the blade height at 0.5-1.0 cm and cultivated for one month in a green house of which temperature was kept at 25˜30° C. for daytime and 15˜25° C. for nighttime, respectively. Then, the ‘test chemical’ of the above Examples 1 and 2 or ‘control chemical’ was applied thereto in an amount of 400, 200, 100, 50, 25, 12, 6, 3 g ai/ha. As a “control chemical”, pyrazolsulfuron ethyl wettable agent (manufactured by Dongbu Fine Chemicals; herein after, referred to as ‘control chemical No. 1’) and flazasulfuron (manufactured by Dongbu HiTek; herein after, referred to as ‘control chemical No. 2’), both sulfonylurea herbicides for a turf grass, were used. Application was carried out by using a track sprayer (R&D Sprayer, USA) equipped with Teejet 8002 nozzle (Spraying Systems Co., USA), and the application amount was adjusted to 2,000 L/ha, which is a typical application amount for a golf course in Korea. Application solution was prepared by diluting the “test chemical” or the “control chemical” with tap water. […] The test was repeated three times in a random arrangement and the results are given in average value of each test (see Table 2 below).

[4] = test system: Portulaca oleracea; test: Weed spectrum, greenhouse pot test; format: in vivo; conditions: two weeks after application
Outline: (§2)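 Scores reflect visual weed control two weeks after spraying, where 0 means no effect and 100 complete control. Plants grew in a greenhouse at 25˜30° C by day and 15˜25° C by night, with treatment either at sowing or at three-leaf stage.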

[5] = test system: Cyperus amuricus; test: Weed spectrum, greenhouse pot test; format: in vivo; conditions: two weeks after application
Outline: as §2

[6] = test system: Kummerowia striata; test: Weed spectrum, greenhouse pot test; format: in vivo; conditions: two weeks after application
Outline: as §2

[7] = test system: Trifolium repens; test: Weed spectrum, greenhouse pot test; format: in vivo; conditions: two weeks after application
Outline: as §2

[8] = test system: Poa annua; test: Weed spectrum, greenhouse pot test; format: in vivo; conditions: two weeks after application
Outline: as §2

Cc1cc(C)nc(NC(=O)NS(=O)(=O)c2ccccc2C(O)C(C)F)n1 (stereo not drawn) [Example 1]
phytotoxicity in actual field condition ([1]; 50 g ai/ha): 0 | phytotoxicity in actual field condition ([1]; 100 g ai/ha): 0 | phytotoxicity in actual field condition ([2]; 50 g ai/ha): 0 | phytotoxicity in actual field condition ([2]; 100 g ai/ha): 0 | phytotoxicity to a turf grass ([3]; 100 g ai/ha): no phytotoxicity at all | phytotoxicity to a turf grass ([3]; 400 g ai/ha): only minor phytotoxicity | phytotoxicity to turf grasses ([3]; 400 or 200 g ai/ha): only minor phytotoxicity | safety to turf grasses ([3]; every kind of turf grasses tested, 100 g ai/ha or less): excellent safety | efficacy (0-100 scale) ([4]; Post-emergence, 12 g ai/ha): 70 | efficacy (0-100 scale) ([4]; Post-emergence, 25 g ai/ha): 90 | efficacy (0-100 scale) ([4]; Post-emergence, 50 g ai/ha): 100 | efficacy (0-100 scale) ([4]; Post-emergence, 100 g ai/ha): 100 | efficacy (0-100 scale) ([4]; Pre-emergence, 12 g ai/ha): 90 | efficacy (0-100 scale) ([4]; Pre-emergence, 25 g ai/ha): 90 | efficacy (0-100 scale) ([4]; Pre-emergence, 50 g ai/ha): 100 | efficacy (0-100 scale) ([4]; Pre-emergence, 100 g ai/ha): 100 | efficacy (0-100 scale) ([5]; Post-emergence, 12 g ai/ha): 90 | efficacy (0-100 scale) ([5]; Post-emergence, 25 g ai/ha): 95 | efficacy (0-100 scale) ([5]; Post-emergence, 50 g ai/ha): 100 | efficacy (0-100 scale) ([5]; Post-emergence, 100 g ai/ha): 100 | efficacy (0-100 scale) ([5]; Pre-emergence, 12 g ai/ha): 90 | efficacy (0-100 scale) ([5]; Pre-emergence, 25 g ai/ha): 95 | efficacy (0-100 scale) ([5]; Pre-emergence, 50 g ai/ha): 100 | efficacy (0-100 scale) ([5]; Pre-emergence, 100 g ai/ha): 100 | efficacy (0-100 scale) ([6]; Post-emergence, 12 g ai/ha): 70 | efficacy (0-100 scale) ([6]; Post-emergence, 25 g ai/ha): 70 | efficacy (0-100 scale) ([6]; Post-emergence, 50 g ai/ha): 100 | efficacy (0-100 scale) ([6]; Post-emergence, 100 g ai/ha): 100 | efficacy (0-100 scale) ([6]; Pre-emergence, 12 g ai/ha): 70 | efficacy (0-100 scale) ([6]; Pre-emergence, 25 g ai/ha): 90 | efficacy (0-100 scale) ([6]; Pre-emergence, 50 g ai/ha): 90 | efficacy (0-100 scale) ([6]; Pre-emergence, 100 g ai/ha): 100 | efficacy (0-100 scale) ([7]; Post-emergence, 12 g ai/ha): 40 | efficacy (0-100 scale) ([7]; Post-emergence, 25 g ai/ha): 50 | efficacy (0-100 scale) ([7]; Post-emergence, 50 g ai/ha): 60 | efficacy (0-100 scale) ([7]; Post-emergence, 100 g ai/ha): 60 | efficacy (0-100 scale) ([7]; Pre-emergence, 12 g ai/ha): 30 | efficacy (0-100 scale) ([7]; Pre-emergence, 25 g ai/ha): 50 | efficacy (0-100 scale) ([7]; Pre-emergence, 50 g ai/ha): 70 | efficacy (0-100 scale) ([7]; Pre-emergence, 100 g ai/ha): 70 | efficacy (0-100 scale) ([8]; Post-emergence, 12 g ai/ha): 10 | efficacy (0-100 scale) ([8]; Post-emergence, 25 g ai/ha): 30 | efficacy (0-100 scale) ([8]; Post-emergence, 50 g ai/ha): 50 | efficacy (0-100 scale) ([8]; Post-emergence, 100 g ai/ha): 70 | efficacy (0-100 scale) ([8]; Pre-emergence, 12 g ai/ha): 50 | efficacy (0-100 scale) ([8]; Pre-emergence, 25 g ai/ha): 60 | efficacy (0-100 scale) ([8]; Pre-emergence, 50 g ai/ha): 70 | efficacy (0-100 scale) ([8]; Pre-emergence, 100 g ai/ha): 80
